This note sets out measurements from ChEMBL document CHEMBL1123759, “Nonequilibrium opioid antagonist activity of 6,14-dideoxynaltrexone derivatives” (1987).

Type in all cases: functional
The species entered for experiment [1] is Cavia porcellus. Nature of the experiment: Compound was evaluated for irreversible antagonist activity in Guinea pig ileum (GPI) agonist (ethylketazocine) IC50 after antagonist treatment (20 nM) divided by the agonist control IC50.
The species entered for experiment [2] is Cavia porcellus. Nature of the experiment: Compound was evaluated for irreversible antagonist activity in Guinea pig ileum (GPI) agonist (morphine) IC50 after antagonist treatment (20 nM) divided by the agonist control IC50.
The species entered for experiment [3] is Cavia porcellus. Nature of the experiment: Compound was evaluated for irreversible antagonist activity in Guinea pig ileum (GPI) agonist (morphine) IC50 after antagonist treatment (200 nM) divided by the agonist control IC50 (Tissue was treated with 200 nM compound rather than 20 nM).
For experiment [4], the species on record is Cavia porcellus. In words: Compound was evaluated for irreversible antagonist activity in Guinea pig ileum (GPI)agonist (ethylketazocine) IC50 after antagonist treatment (200 nM) divided by the agonist control IC50.
Experiment [5] is filed under the species Cavia porcellus. In words: Compound was evaluated for agonist activity in Guinea pig ileum (GPI) partial agonist (potency ratio is based on IC10 value for compound and morphine).
The species named for experiment [6] is Mus musculus. In words: Compound was evaluated for irreversible antagonist activity in Mouse vas deference(MVD) agonist (DADLE) IC50 after antagonist treatment (50 nM) divided by the agonist control IC50.
The species named for experiment [7] is Mus musculus. In words: Compound was evaluated for agonist activity in Mouse vas deferens (MVD).
The species named for experiment [8] is Mus musculus. In words: Compound was evaluated for irreversible antagonist activity in Mouse vas deference(MVD) agonist (morphine) IC50 after antagonist treatment (50 nM) divided by the agonist control IC50.
The species named for experiment [9] is Cavia porcellus. In words: Compound was evaluated for agonist activity in Guinea pig ileum (GPI).
Experiment [10] is filed under the species Cavia porcellus. Nature of the experiment: Compound was evaluated for irreversible antagonist activity in Guinea pig ileum (GPI) agonist (morphine) IC50 after antagonist treatment (200 nM) divided by the agonist control IC50.

As to `Oc1ccc2c3c1O[C@H]1[C@H](N=C=S)CCC4C(C2)N(CC2CC2)CCC341` (some centres undefined), the IC50 ratio worked out at 1.58 in [1]; 4.8 in experiment [2]; 70 in [3]; 2.29 in [4]; 1.96 in experiment [6]; 11.5 in experiment [8]. The figures for the Potency ratio in experiment [5] and in experiment [7] were 3.1 and 4.5, respectively.
For `COC(=O)/C=C/C(=O)N[C@@H]1CC[C@@]2(O)[C@H]3Cc4ccc(O)c5c4[C@@]2(CCN3CC2CC2)[C@H]1O5`, the IC50 ratio in experiment [1] worked out at 1; in experiment [2] it was 6; in [6] it was 1.8; in experiment [8], 3.9. Further, the Potency ratio is on record as 4.4 in [7] and 5 in experiment [9].
For the molecule `CN(CCCl)[C@@H]1CCC2C3Cc4ccc(O)c5c4C2(CCN3CC2CC2)[C@H]1O5` (some centres undefined), the IC50 ratio in experiment [1] came to 6.25; in experiment [2] it was 125; in [6] it was 46.77; in [8] it was 51. Further, the values for the Potency ratio in experiment [7] and in experiment [9] were 380 and 154, respectively.
On to `COC(=O)/C=C/C(=O)N[C@@H]1CCC2C3Cc4ccc(O)c5c4C2(CCN3CC2CC2)[C@H]1O5` (some centres undefined), for which the IC50 ratio stood at 1.33 in [1]; 1.58 in experiment [2]; 2.77 in [10]; 0.5 in experiment [4]; 2.29 in experiment [6]; 4.12 in experiment [8]. In addition, the results for the Potency ratio in [7] and in [9] were 18 and 17.62, respectively.
For `O=C(CI)N[C@@H]1CCC2C3Cc4ccc(O)c5c4C2(CCN3CC2CC2)[C@H]1O5` (some centres undefined), the IC50 ratio in experiment [1] was 1.03; in experiment [2], 3.05; in experiment [6], 2.4; in experiment [8], 15.6. In addition, the results for the Potency ratio in experiment [7] and in experiment [9] were 25.3 and 6.27, respectively.
